Laboratory results: US6949542B2, “Dihydro-benzo[b][1,4]diazepin-2-one derivatives” (Hoffman-La Roche Inc., priority 2002, dated 2005)

Structure (SMILES)	melting point [°C]
O=C1CC(c2cccc(-c3cccnc3)c2)=Nc2cc(N3CCOCC3)c(C(F)(F)F)cc2N1 [Example 188, 7-Morpholin-4-yl-4-(3-pyridin-3-yl-phenyl)-8-trifluoromethyl-1,3-dihydro-benzo[b][1,4]diazepin-2-one]	198 to 201
COCCOc1cc2c(cc1C(F)(F)F)NC(=O)CC(c1cccc(-c3ccnc(C)c3)c1)=N2 [Example 242, 7-(2-Methoxy-ethoxy)-4-[3-(2-methyl-pyridin-4-yl)-phenyl]-8-trifluoromethyl-1,3-dihydro-benzo[b][1,4]diazepin-2-one]	198 to 199
Cc1cc(-c2cccc(C3=Nc4cc(N(C)CC(C)C)c(C(F)(F)F)cc4NC(=O)C3)c2)cc(C)n1 [Example 408, 4-[3-(2,6-Dimethyl-pyridin-4-yl)-phenyl]-7-(isobutyl-methyl-amino)-8-trifluoromethyl-1,3-dihydro-benzo[b][1,4]diazepin-2-one]	215
CCCN(C)c1cc2c(cc1C(F)(F)F)NC(=O)CC(c1cccc(-c3cc(C)nc(C)c3)c1)=N2 [Example 413, 4-[3-(2,6-Dimethyl-pyridin-4-yl)-phenyl]-7-(methyl-propyl-amino)-8-trifluoromethyl-1,3-dihydro-benzo[b][1,4]diazepin-2-one]	233
CN(C)c1ccc(-c2cccc(C3=Nc4cc(OCC(F)(F)F)c(C(F)(F)F)cc4NC(=O)C3)c2)cn1 [Example 218, 4-[3-(6-Dimethylamino-pyridin-3-yl)-phenyl]-7-(2,2,2-trifluoro-ethoxy)-8-trifluoromethyl-1,3-dihydro-benzo[b][1,4]diazepin-2-one]	240 to 241
CCOc1cc2c(cc1C(F)(F)F)NC(=O)CC(c1ccnc(-c3cccnc3)c1)=N2 [Example 393, 4-[2,3′]Bipyridinyl-4-yl-7-ethoxy-8-trifluoromethyl-1,3-dihydro-benzo[b][1,4]diazepin-2-one]	249
COc1ccc(-c2cccc(C3=Nc4cc(N(C)C)c(C(F)(F)F)cc4NC(=O)C3)c2)nn1 [Example 40, 7-Dimethylamino-4-[3-(6-methoxy-pyridazin-3-yl)-phenyl]-8-trifluoromethyl-1,3-dihydro-benzo[b][1,4]diazepin-2-one]	224
Cc1cc(C)c(-c2cccc(C3=Nc4cc(C)c(C(F)(F)F)cc4NC(=O)C3)c2)cn1 [Example 245, 4-[3-(4,6-Dimethyl-pyridin-3-yl)-phenyl]-7-methyl-8-trifluoromethyl-1,3-dihydro-benzo[b][1,4]diazepin-2-one]	218 to 219
Cc1cc2c(cc1C(F)(F)F)NC(=O)CC(c1cccc(-c3ccnnc3)c1)=N2 [Example 49, 7-Methyl-4-(3-pyridazin-4-yl-phenyl)-8-trifluoromethyl-1,3-dihydro-benzo[b][1,4]diazepin-2-one]	223
O=C1CC(c2cccc(-c3ncccn3)c2)=Nc2ccc(C(F)(F)F)cc2N1 [Example 338, 4-(3-Pyrimidin-2-yl-phenyl)-8-trifluoromethyl-1,3-dihydro-benzo[b][1,4]diazepin-2-one]	236 to 237
Cc1cc2c(cc1Cl)NC(=O)CC(c1ccnc(-c3cccnc3)c1)=N2 [Example 291, 4-[2,3′]Bipyridinyl-4-yl-8-chloro-7-methyl-1,3-dihydro-benzo[b][1,4]diazepin-2-one]	229 to 231
CCc1cc(C)c(-c2cccc(C3=Nc4cc(OCC(F)(F)F)c(C(F)(F)F)cc4NC(=O)C3)c2)cn1 [Example 256, 4-[3-(6-Ethyl-4-methyl-pyridin-3-yl)-phenyl]-7-(2,2,2-trifluoro-ethoxy)-8-trifluoromethyl-1,3-dihydro-benzo[b][1,4]diazepin-2-one]	145 to 160
Cc1cc(-c2cccc(C3=Nc4cc(F)c(C(F)(F)F)cc4NC(=O)C3)c2)cc(C)n1 [Example 240, 4-[3-(2,6-Dimethyl-pyridin-4-yl)-phenyl]-7-fluoro-8-trifluoromethyl-1,3-dihydro-benzo[b][1,4]diazepin-2-one]	251 to 252
CCOc1ccc2c(c1)N=C(c1cccc(-c3ccncc3)c1)CC(=O)N2 [Example 163, 7-Ethoxy-4-(3-pyridin-4-yl-phenyl)-1,3-dihydro-benzo[b][1,4]diazepin-2-one]	180 to 185
Cc1ccc(-c2cccc(C3=Nc4ccc(F)cc4NC(=O)C3)c2)cn1 [Example 11, 8-Fluoro-4-[3-(6-methyl-pyridin-3-yl)-phenyl]-1,3-dihydro-benzo[b][1,4]diazepin-2-one]	225 to 226
Cc1ccc(-c2cccc(C3=Nc4ccc(Cl)cc4NC(=O)C3)c2)cn1 [Example 31, 8-Chloro-4-[3-(6-methyl-pyridin-3-yl)-phenyl]-1,3-dihydro-benzo[b][1,4]diazepin-2-one]	230
CC(C)N(C)c1cc2c(cc1Cl)NC(=O)CC(c1cccc(-c3ccnc(CO)c3)c1)=N2 [Example 367, 8-Chloro-4-[3-(2-hydroxymethyl-pyridin-4-yl)-phenyl]-7-(isopropyl-methyl-amino)-1,3-dihydro-benzo[b][1,4]diazepin-2-one]	143

Structure (SMILES)	melting point [°C]
COCc1cc(-c2cccc(C3=Nc4cc(N(C)CC(C)C)c(C(F)(F)F)cc4NC(=O)C3)c2)ccn1 [Example 398, 7-(Isobutyl-methyl-amino)-4-[3-(2-methoxymethyl-pyridin-4-yl)-phenyl]-8-trifluoromethyl-1,3-dihydro-benzo[b][1,4]diazepin-2-one]	141
O=C1CC(c2cccc(-c3ccc(C4CC4)nc3)c2)=Nc2cc(OCC(F)(F)F)c(C(F)(F)F)cc2N1 [Example 166, 4-[3-(6-Cyclopropyl-pyridin-3-yl)-phenyl]-7-(2,2,2-trifluoro-ethoxy)-8-trifluoromethyl-1,3-dihydro-benzo[b][1,4]diazepin-2-one]	213 to 214
Cc1cc(-c2cccc(C3=Nc4cc(Cl)c(C(F)(F)F)cc4NC(=O)C3)c2)cc(CO)n1 [Example 403, 7-Chloro-4-[3-(2-hydroxymethyl-6-methyl-pyridin-4-yl)-phenyl]-8-trifluoromethyl-1,3-dihydro-benzo[b][1,4]diazepin-2-one]	163
Cc1nccc(-c2cccc(C3=Nc4ccc(-n5cccc5)cc4NC(=O)C3)c2)n1 [Example 307, 4-[3-(2-Methyl-pyrimidin-4-yl)-phenyl]-8-pyrrol-1-yl-1,3-dihydro-benzo[b][1,4]diazepin-2-one]	209 to 212
CCOc1cc2c(cc1C(F)(F)F)NC(=O)CC(c1cccc(-c3ccc(C)nc3)c1)=N2 [Example 238, 7-Ethoxy-4-[3-(6-methyl-pyridin-3-yl)-phenyl]-8-trifluoromethyl-1,3-dihydro-benzo[b][1,4]diazepin-2-one]	210
O=C1CC(c2cccc(-c3cccnn3)c2)=Nc2ccc(C(F)(F)F)cc2N1 [Example 205, 4-(3-Pyridazin-3-yl-phenyl)-8-trifluoromethyl-1,3-dihydro-benzo[b][1,4]diazepin-2-one]	238 to 240
CCc1cc2c(cc1C(F)(F)F)NC(=O)CC(c1cccc(-c3ccnc(C#N)c3)c1)=N2 [Example 210, 4-[3-(8-Ethyl-4-oxo-7-trifluoromethyl-4,5-dihydro-3H-benzo[b][1,4]diazepin-2-yl)-phenyl]-pyridine-2-carbonitrile]	210 to 217
C=Cc1cc2c(cc1C(F)(F)F)NC(=O)CC(c1cccc(-c3cc(C)nc(C)c3)c1)=N2 [Example 241, 4-[3-(2,6-Dimethyl-pyridin-4-yl)-phenyl]-8-trifluoromethyl-7-vinyl-1,3-dihydro-benzo[b][1,4]diazepin-2-one]	225 to 226
COc1ccc(-c2cccc(C3=Nc4ccc(Cl)cc4NC(=O)C3)c2)cn1 [Example 51, 8-Chloro-4-[3-(6-methoxy-pyridin-3-yl)-phenyl]-1,3-dihydro-benzo[b][1,4]diazepin-2-one]	200 to 205
CCOc1ccc2c(c1)N=C(c1cccc(-c3ccc(C)nc3)c1)CC(=O)N2 [Example 60, 7-Ethoxy-4-[3-(6-methyl-pyridin-3-yl)-phenyl]-1,3-dihydro-benzo[b][1,4]diazepin-2-one]	173
O=C1CC(c2cccc(-c3ccccn3)c2)=Nc2cc(OCC(F)(F)F)c(C(F)(F)F)cc2N1 [Example 44, 4-(3-Pyridin-2-yl-phenyl)-7-(2,2,2-trifluoro-ethoxy)-8-trifluoromethyl-1,3-dihydro-benzo[b][1,4]diazepin-2-one]	214
CNc1cc(-c2cccc(C3=Nc4cc(C)c(Cl)cc4NC(=O)C3)c2)ncn1 [Example 331, 8-Chloro-7-methyl-4-[3-(6-methylamino-pyrimidin-4-yl)-phenyl]-1,3-dihydro-benzo[b][1,4]diazepin-2-one]	240 to 243
O=C1CC(c2cccc(-c3ccnc(C4CC4)c3)c2)=Nc2cc(OCC(F)(F)F)c(C(F)(F)F)cc2N1 [Example 349, 4-[3-(2-Cyclopropyl-pyridin-4-yl)-phenyl]-7-(2,2,2-trifluoro-ethoxy)-8-trifluoromethyl-1,3-dihydro-benzo[b][1,4]diazepin-2-one]	218
O=C1CC(c2cccc(-c3cncnc3)c2)=Nc2cc(Cl)c(C(F)(F)F)cc2N1 [Example 95, 7-Chloro-4-(3-pyrimidin-5-yl-phenyl)-8-trifluoromethyl-1,3-dihydro-benzo[b][1,4]diazepin-2-one]	222
CC(C)c1cc(-c2cccc(C3=Nc4cc(OCC(F)(F)F)c(C(F)(F)F)cc4NC(=O)C3)c2)ccn1 [Example 275, 4-[3-(2-Isopropyl-pyridin-4-yl)-phenyl]-7-(2,2,2-trifluoro-ethoxy)-8-trifluoromethyl-1,3-dihydro-benzo[b][1,4]diazepin-2-one]	202
Cc1cc(-c2cccc(C3=Nc4ccc(OC(F)(F)F)cc4NC(=O)C3)c2)cc(C)n1 [Example 213, 4-[3-(2,6-Dimethyl-pyridin-4-yl)-phenyl]-8-trifluoromethoxy-1,3-dihydro-benzo[b][1,4]diazepin-2-one]	190 to 193
CCOc1cc2c(cc1C(F)(F)F)NC(=O)CC(c1cccc(-c3ccc(CC)nc3)c1)=N2 [Example 190, 7-Ethoxy-4-[3-(6-ethyl-pyridin-3-yl)-phenyl]-8-trifluoromethyl-1,3-dihydro-benzo[b][1,4]diazepin-2-one]	218 to 219
